Data: patent EP3199156A1, “USE OF GLYCINE TRANSPORTER 1 ANTAGONISTS AS CENTRAL NERVOUS ANALGESICS” (Heinrich Heine Universität Düsseldorf, priority 2016, dated 2017)
“Also recorded” adds a separate entry of the source.

Assays:
C57BL/6-Maus = test: Mechanical allodynia (von Frey filament, withdrawal threshold) after chronic constriction injury (CCI), mouse; type: in vivo
Mäusen = settings: in vivo
Procedure: (§1) Zum Beweis der Effektivität der Bitopertin-Applikation zur Behandlung neuropathischer Schmerzen wurde eine operative Ligatur des linken N. ischiadicus (Chronic Constriction Injury; CCI) der Wistar Ratte sowie C57BL/6-Maus induziert. Am Tag 10-12 nach CCI erhielten 2 Gruppen der Ratten randomisiert und verblindet eine einmalige orale Dosierungen von Bitopertin (0,3; 1 mg/kg), während die Kontrollgruppen Vehikel erhielten. Mechanische Allodynie wurde mittels eines halbautomatischen Frey Filaments (Ugo Basile) vor und 10-12 Tage nach CCI, sowie 1, 2, 4, 8 und 24 h nach Applikation von Bitopertin bzw. Vehikel überprüft. Zusätzlich wurde die Wirkung von Bitopertin 10 Tage nach CCI in Mäusen bei kontinuierlicher Langzeitapplikation mittels subkutan implantierter, osmotischer Mini-Infusionspumpen (2 mg/kg/Tag) über 27 Tage untersucht. Neuromotorische Wirkungen von Bitopertin in Mäusen wurden im Open-Field-Test 1 h nach Injektion bzw. bei kontinuierlicher Applikation nach 12 Tagen analysiert. Statistik: Alle Daten sind dargestellt als Mittelwerte ± Standardfehler; ANOVA und Bonferroni post hoc Test; Signifikanzniveau p<0,05.

Wistar Ratte = test: Mechanical allodynia (von Frey filament) after chronic constriction injury (CCI) of the left sciatic nerve, rat; type: in vivo; settings: rats, day 10-12 after CCI
Procedure: as §1
In Figur 3 ist der Effekt des GlyT1-Inhibitors Bitopertin auf die mechanische Allodynie bei Nagern mit Neuropathie nach CCI dargestellt. Abbildung (A) zeigt den Effekt des GlyT1-Inhibitors Bitopertin auf die einmalige orale Applikation bei Ratten 0,3 mg/kg; n=9-11. […]

Aktivität (Open-field Test) (Mäusen; 2 mg/kg): keine Veränderungen der Aktivität
SMILES: C[C@H](Oc1ccc(S(C)(=O)=O)cc1C(=O)N1CCN(c2ncc(C(F)(F)F)cc2F)CC1)C(F)(F)F [Bitopertin]
Schmerzempfindlichkeit der neuropathischen Extremität (mechanische Allodynie) (C57BL/6-Maus; mice after CCI, continuous subcutaneous administration 2 mg/kg/Tag by osmotic mini-pump over 27 days, effect from 7 days after start until end of therapy, Figur 3 C, 2 mg/kg): verminderten Schmerzempfindlichkeit der neuropathischen Extremität; also recorded: signifikanten Verminderung von mechanischer Allodynie
Rückzugsschwellenwerte in Antwort auf eine mechanische Stimulation der neuropathischen Extremität (C57BL/6-Maus; mice, intraperitoneal 2 mg/kg versus Kochsalzlösung 0,9%, Figur 1): deutliche Anhebung der gemessenen Rückzugsschwellenwerte
unerwünschte neuromotorische Wirkungen (Mäusen): nicht zu unerwünschten neuromotorischen Wirkungen
Wegstrecken und Aufenthaltsdauern (Open-Field-Test) (Mäusen; sc, 2 mg/kg): keine Unterschiede in Wegstrecken und Aufenthaltsdauern
durch CCI induzierte mechanische Allodynie (Wistar Ratte; single oral dose 0,3 mg/kg, effect two and four hours after administration, Figur 3 A): Reduktion der durch CCI induzierten mechanischen Allodynie; also recorded: signifikanten Verminderung von mechanischer Allodynie
durch CCI induzierte mechanische Allodynie (Wistar Ratte; single oral dose 1 mg/kg, compared with 0,3 mg/kg, Figur 3 B): vergleichbar ausprägten Effekten; also recorded: signifikanten Verminderung von mechanischer Allodynie
